“And” between values parts separate entries of the source, which are not always exact repeats. Identical values can stand only once. “Also recorded” adds a separate entry of the source.

One assay deals with C57BL/6 mice. The experiment in a line: Anti-CD41 antibody-induced thrombocytopenia in C57BL/6 mice, platelet counts (Examples 1 and 3, FIG. 1). Particulars: for Platelet count versus mice treated with CD41 antibody alone: first dose 30 minutes prior to platelet-depleting antibody, 24 h. Type of assay: in vivo, mouse. As for the experimental part: On Day 1 of each study, mice were rendered thrombocytopenic by injection with rat anti-mouse CD41 antibody (IgG1, Clone MWReg30) by the intraperitoneal (IP) route. The platelet depleting antibody (rat anti-mouse GPIIb, also referred to as anti-integrin αIIb or anti-CD41) was administered […] treatment with Compound I on Day 1. Mice in control groups either received nothing (naïve), saline only, or an isotype-matched irrelevant control antibody (nonspecific rat anti-mouse IgG1, Clone R3-34, BD, San Jose, Calif.).
Mice received vehicle or Compound 1 at various dose levels (0, 20, 40, or 80 mg/kg, PO, 5 mL/kg) 30 minutes prior to the platelet depleting antibody, then again 8 h, 16 h, and 23 h after induction of thrombocytopenia. At 24 h after administration of the anti-CD41 platelet-depleting antibody, blood was harvested from all groups by cardiocentesis to assess the platelet counts or drug levels in the plasma. An aliquot from each sample was transferred to a plasma separator tube and the separated plasma was stored at −80° C. for analysis. Blood was placed indirectly on ice for delivery. Platelet enumeration was performed using Bayer Advia 120 Bayer Advia 120 hematology system (Bayer, Tarrytown, N.Y.) by Quality Clinical Laboratories (QCL, Mountain View, Calif.).
Systemic drug exposures were determined at sacrifice with the final dose being given on the evening of Day 1 (8 h prior to blood collection) or on the morning of Day 2 (1 h prior to blood collection). Satellite animals treated with Compound 1 and not receiving platelet-depleting antibody were added to obtain a more complete PK profile.
Significant differences between vehicle and Compound I-treated groups were determined statistically using the GraphPad Prism 4.0® software package, unless otherwise stated. In general, Prism 4.0® uses the standard calculations as detailed in D. G. Altman, Practical Statistics for Medical Research, 1991, Chapman and Hall. Platelet count data was analyzed using Kruskal Wallis Nonparametric test with Dunn's multiple group post-hoc test to compare the rank sums, unless otherwise noted.
In FIG. 1, each data point represents platelet counts for an individual mouse administered a single IP injection of 5 μg of CD41 platelet depleting antibody (n=11-12 per group). Mice were bled 24 hours post antibody administration and platelet counts were performed using Bayer Advia 120 analyzer. Mice were given vehicle or indicated doses of Compound 1. Platelet-depleting antibody was administered 30 minutes after the first Compound 1 or vehicle dose on Day 1.

The test system of a further assay is CD-1 mice. Nature of the assay: Antibody-mediated thrombocytopenia in CD-1 mice, platelet counts by flow cytometry (Examples 2 and 4, FIG. 2, Table 1). Type of assay: in vivo, mouse. Particulars: for Individual Animal Platelet Count / Platelet Count Mean: 24 hours following anti-αIIb treatment; for Individual Animal Platelet Count: one value per animal; for Platelet Count Mean: n=6. As for the experimental part:
CD-1 mice, approximately 10 weeks of age, were obtained from Charles River (Montreal, PQ, Canada). All mice, with the exception of the naïve group, were injected with 2 μg rat anti-mouse GPIIb (also referred to as anti-integrin αIIb or anti-CD41) antibody (specific for GPIIb, clone MWReg30, rat IgG1, κ, PharMingen, Missassuaga, ON, Canada) in 200 μL PBS on Day 1. Platelets were enumerated on Day 2 (24 hours following injection of anti-platelet antibody).
During the 3 day experiment (Day O— Day 2), Compound I-treated mice were given the indicated doses of Compound 1 by oral gavage once on Day 0, twice on Day 1 and once on Day 2. Control animals were given an equal volume of vehicle. For the IVIg group, mice were injected intraperitoneally (IP) with 2 g/kg Gamunex IVIg (Bayer, Elkhart, Ill.) once on Day 0. Two concentrations of Compound 1 (3.08 and 4.94 mg/mL) were formulated with 0.1% CMC Na-0.1% Methylparaben-0.02% Propylparaben-H2O. One day prior to platelet depletion, treatment began. Mice were treated orally twice daily (bid.) with Compound 1 (30.8 or 49.4 mg/kg of body weight per dose, n=6) at a dose volume of 10 mL/kg. IVIg (2 g/kg) was used as a reference agent and was administered IP as described previously (Crow et al., 2003).
Two hours following the last treatment of Compound 1 on Day 2, all mice were bled via the saphenous vein; 50 μL of blood was collected into 450 μL PBS/1% EDTA. The blood was further diluted to a final dilution of 1/12,000 in PBS/1% EDTA. Platelets were enumerated by flow cytometry according to Crow et al., 2001. Briefly, the samples were acquired for 2 minutes on a flow-rate-calibrated FACScan flow cytometer (Becton-Dickinson, San Jose, Calif.), using forward scatter (FSC) versus side scatter (SSC) to gate platelets.
All values in the text and figures are expressed as mean±standard error of the mean (SEM) for n=6 mice/group unless noted otherwise, and n represents the number of mice. Differences between treatment and control groups were compared using the 2-tailed Student's t-test using GraphPad Prism Inc., software ver. 4.0 (San Diego, Calif., USA).
On Day 0, mice were pre-treated with nothing (Nil), 0.25 mL Vehicle twice (8 hrs apart) or the indicated doses of Compound 1 (in 0.25 mL vehicle) or 2 g/kg IVIg. On Day 1, the above treatments were repeated except for IVIg. All mice also received 2 μg anti-platelet antibody on Day 1. On Day 2, all mice were bled for platelet enumeration by flow cytometry as described. n=6 mice per group. Data are expressed as mean±SEM.

For `COc1cc(Nc2ncc(F)c(Nc3ccc4c(n3)N(COP(=O)(O)O)C(=O)C(C)(C)O4)n2)cc(OC)c1OC` [Compound 1], the “Platelet count versus the 80 mg/kg group” value with C57BL/6 mice (20 mg/kg PO with platelet depleting antibody, p<0.01) is “significantly lower”. The “Platelet count versus mice treated with CD41 antibody alone” value in the assay on C57BL/6 mice (40 mg/kg PO, p<0.05) is “significantly higher platelet count”; in the assay with C57BL/6 mice (80 mg/kg PO, p<0.001), “significantly higher platelet count”. The “Dose dependence of inhibition of platelet depletion” value in the assay on C57BL/6 mice (20, 40, 80 mg/kg PO, C57BL/6 mice) is “dose-dependent inhibition of platelet depletion”. Further, the “Inhibition of platelet depletion compared with vehicle alone” value in the assay on CD-1 mice (30.8 mg/kg group, p=0.001, Day 2) is on record as “highly significant”; with CD-1 mice (49.4 mg/kg group, p=0.008, Day 2), “highly significant”. Moreover, the “Dose dependence of the effect on platelet counts” value with CD-1 mice (30.8 versus 49.4 mg/kg, difference not significant (p=0.9)) is “did not appear to be dose-dependent”. Besides, the “Individual Animal Platelet Count” value is 3.92e+11 L⁻¹ and 3.98e+11 L⁻¹ and 4.57e+11 L⁻¹ and 5.84e+11 L⁻¹ and 6.02e+11 L⁻¹ and 6.79e+11 L⁻¹ in the assay with CD-1 mice (Compound 1 30.8 mg/kg oral gavage, CD-1 mice, 30.8 mg/kg); 4.11e+11 L⁻¹ and 4.37e+11 L⁻¹ and 4.33e+11 L⁻¹ and 4.98e+11 L⁻¹ and 9.31e+11 L⁻¹ and 5.1e+11 L⁻¹ in the assay with CD-1 mice (Compound 1 49.4 mg/kg oral gavage, CD-1 mice, 49.4 mg/kg). Besides, the results for the “Platelet Count Mean” value in the assay on CD-1 mice (Compound 1 30.8 mg/kg oral gavage) and in the assay on CD-1 mice (Compound 1 49.4 mg/kg oral gavage) were 5.19e+11 L⁻¹ and 5.37e+11 L⁻¹, respectively. Moreover, the “Effect on platelet depletion by anti-platelet antibody” value with CD-1 mice (Compound 1 treatment prior to and following CD41 platelet depleting antibody, CD-1 mice, Day 2) is “reduced depletion of platelets; also recorded: inhibited the reduction in platelet count”.

These data come from patent US20090088371A1, “COMBINATION THERAPY WITH SYK KINASE INHIBITOR” (Rigel Pharmaceuticals, Inc., priority 2007, published 2009).
